Measurements published in PubChem BioAssay (NCI).
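Grown in 96-well plates, cells were treated for 48 hours with each compound at five concentrations. Insufficient inhibition: endpoint recorded as highest concentration tested. GI50 = concentration required for 50% inhibition of growth. TGI denotes the concentration required for complete inhibition of growth.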

How the values were obtained:
Assay in all cases: NCI-60 cell line screen, 48 h
KM12 colon = tested on: KM12 colon
SW-620 colon = tested on: SW-620 colon
SK-MEL-5 melanoma = tested on: SK-MEL-5 melanoma
786-0 renal = tested on: 786-0 renal
T-47D breast = tested on: T-47D breast
MCF7 breast = tested on: MCF7 breast
SN12C renal = tested on: SN12C renal
NCI-H460 lung = tested on: NCI-H460 lung
SNB-75 CNS = tested on: SNB-75 CNS
M14 melanoma = tested on: M14 melanoma
MOLT-4 leukemia = tested on: MOLT-4 leukemia
UACC-62 melanoma = tested on: UACC-62 melanoma
LOX IMVI melanoma = tested on: LOX IMVI melanoma
U251 CNS = tested on: U251 CNS
OVCAR-8 ovarian = tested on: OVCAR-8 ovarian
IGROV1 ovarian = tested on: IGROV1 ovarian
RPMI-8226 leukemia = tested on: RPMI-8226 leukemia
SF-295 CNS = tested on: SF-295 CNS
CAKI-1 renal = tested on: CAKI-1 renal
ACHN renal = tested on: ACHN renal
NCI-H522 lung = tested on: NCI-H522 lung
HS 578T breast = tested on: HS 578T breast
OVCAR-3 ovarian = tested on: OVCAR-3 ovarian
HT29 colon = tested on: HT29 colon
MDA-MB-231 breast = tested on: MDA-MB-231 breast
PC-3 prostate = tested on: PC-3 prostate
BT-549 breast = tested on: BT-549 breast
HOP-62 NSCLC = tested on: HOP-62 NSCLC
HOP-92 NSCLC = tested on: HOP-92 NSCLC
A549 NSCLC = tested on: A549 NSCLC
SNB-19 CNS = tested on: SNB-19 CNS
SK-MEL-2 melanoma = tested on: SK-MEL-2 melanoma
OVCAR-5 ovarian = tested on: OVCAR-5 ovarian
SK-OV-3 ovarian = tested on: SK-OV-3 ovarian
NCI/ADR-RES ovarian = tested on: NCI/ADR-RES ovarian
NCI-H226 lung = tested on: NCI-H226 lung
UACC-257 melanoma = tested on: UACC-257 melanoma
COLO 205 colon = tested on: COLO 205 colon
UO-31 renal = tested on: UO-31 renal
SR leukemia = tested on: SR leukemia
MALME-3M melanoma = tested on: MALME-3M melanoma
K-562 leukemia = tested on: K-562 leukemia
NCI-H23 lung = tested on: NCI-H23 lung
HCT-15 colon = tested on: HCT-15 colon
DU-145 prostate = tested on: DU-145 prostate
SF-268 CNS = tested on: SF-268 CNS
MDA-MB-435 = tested on: MDA-MB-435
EKVX NSCLC = tested on: EKVX NSCLC
HL-60(TB) leukemia = tested on: HL-60(TB) leukemia
SK-MEL-28 melanoma = tested on: SK-MEL-28 melanoma
RXF 393 renal = tested on: RXF 393 renal
SF-539 CNS = tested on: SF-539 CNS
OVCAR-4 ovarian = tested on: OVCAR-4 ovarian

Oc1cc2ccccc2cc1-c1n[nH]c(=S)n1CCc1ccccc1 gave a GI50 (KM12 colon) of 43.2 µM, a TGI (KM12 colon) greater than 100 µM and a GI50 (SW-620 colon) of 36.2 µM. It also gave a TGI (SW-620 colon) greater than 100 µM, a GI50 (SK-MEL-5 melanoma) of 19.4 µM and a TGI (SK-MEL-5 melanoma) of 43.6 µM. For the same molecule, the GI50 (786-0 renal) was 18.3 µM, the TGI (786-0 renal) was 36.2 µM and the GI50 (T-47D breast) was 43.6 µM. The TGI (T-47D breast) was greater than 100 µM, the GI50 (MCF7 breast) was 22.5 µM and the TGI (MCF7 breast) was 44.5 µM. It also gave a GI50 (SN12C renal) of 16.7 µM, a TGI (SN12C renal) of 32.6 µM and a GI50 (NCI-H460 lung) of 20.2 µM. For the same molecule, the TGI (NCI-H460 lung) was 35.3 µM, the GI50 (SNB-75 CNS) was 73.2 µM and the TGI (SNB-75 CNS) was greater than 100 µM. For the same molecule, the GI50 (M14 melanoma) was 15.8 µM, the TGI (M14 melanoma) was 32.2 µM and the GI50 (MOLT-4 leukemia) was greater than 100 µM. It also gave a TGI (MOLT-4 leukemia) greater than 100 µM, a GI50 (UACC-62 melanoma) of 21.2 µM and a TGI (UACC-62 melanoma) of 39.6 µM. For the same molecule, the GI50 (LOX IMVI melanoma) was 22.1 µM, the TGI (LOX IMVI melanoma) was 38.7 µM and the GI50 (U251 CNS) was 20.3 µM. It also gave a TGI (U251 CNS) of 39 µM, a GI50 (OVCAR-8 ovarian) of 35.5 µM and a TGI (OVCAR-8 ovarian) greater than 100 µM. The GI50 (IGROV1 ovarian) was 14.8 µM, the TGI (IGROV1 ovarian) was 30.3 µM and the GI50 (RPMI-8226 leukemia) was 18.1 µM. It also gave a TGI (RPMI-8226 leukemia) of 62.5 µM, a GI50 (SF-295 CNS) of 42.3 µM and a TGI (SF-295 CNS) greater than 100 µM. It also gave a GI50 (CAKI-1 renal) of 30.9 µM, a TGI (CAKI-1 renal) of 73.9 µM and a GI50 (ACHN renal) of 22.4 µM. For the same molecule, the TGI (ACHN renal) was 69.8 µM, the GI50 (NCI-H522 lung) was 15.3 µM and the TGI (NCI-H522 lung) was 31.3 µM. The GI50 (HS 578T breast) was 24.2 µM, the TGI (HS 578T breast) was 57 µM and the GI50 (OVCAR-3 ovarian) was 34.4 µM. For the same molecule, the TGI (OVCAR-3 ovarian) was 94 µM, the GI50 (HT29 colon) was 35.7 µM and the TGI (HT29 colon) was 91.8 µM. The GI50 (MDA-MB-231 breast) was 22.1 µM, the TGI (MDA-MB-231 breast) was 57.8 µM and the GI50 (PC-3 prostate) was 20.6 µM. The TGI (PC-3 prostate) was 43.5 µM, the GI50 (BT-549 breast) was 18.6 µM and the TGI (BT-549 breast) was 45.9 µM. For the same molecule, the GI50 (HOP-62 NSCLC) was 25.7 µM, the TGI (HOP-62 NSCLC) was 43.6 µM and the GI50 (HOP-92 NSCLC) was 55.7 µM. The TGI (HOP-92 NSCLC) was greater than 100 µM, the GI50 (A549 NSCLC) was 37.3 µM and the TGI (A549 NSCLC) was greater than 100 µM. For the same molecule, the GI50 (SNB-19 CNS) was 36.7 µM, the TGI (SNB-19 CNS) was greater than 100 µM and the GI50 (SK-MEL-2 melanoma) was 16.3 µM. It also gave a TGI (SK-MEL-2 melanoma) of 32.8 µM, a GI50 (OVCAR-5 ovarian) of 24.1 µM and a TGI (OVCAR-5 ovarian) of 53.4 µM. The GI50 (SK-OV-3 ovarian) was 25.9 µM, the TGI (SK-OV-3 ovarian) was greater than 100 µM and the GI50 (NCI/ADR-RES ovarian) was 21.1 µM. For the same molecule, the TGI (NCI/ADR-RES ovarian) was 43.5 µM, the GI50 (NCI-H226 lung) was 19.9 µM and the TGI (NCI-H226 lung) was 55.3 µM. The GI50 (UACC-257 melanoma) was 30 µM, the TGI (UACC-257 melanoma) was 65.6 µM and the GI50 (COLO 205 colon) was 35.1 µM. The TGI (COLO 205 colon) was greater than 100 µM, the GI50 (UO-31 renal) was 20.3 µM and the TGI (UO-31 renal) was 52.7 µM. For the same molecule, the GI50 (SR leukemia) was greater than 100 µM, the TGI (SR leukemia) was greater than 100 µM and the GI50 (MALME-3M melanoma) was 26.7 µM. The TGI (MALME-3M melanoma) was 58.9 µM, the GI50 (K-562 leukemia) was 68.2 µM and the TGI (K-562 leukemia) was greater than 100 µM. The GI50 (NCI-H23 lung) was 16.5 µM, the TGI (NCI-H23 lung) was 36.1 µM and the GI50 (HCT-15 colon) was 22.5 µM. For the same molecule, the TGI (HCT-15 colon) was 51.9 µM, the GI50 (DU-145 prostate) was 37.1 µM and the TGI (DU-145 prostate) was greater than 100 µM. The GI50 (SF-268 CNS) was 19.7 µM, the TGI (SF-268 CNS) was 37.2 µM and the GI50 (MDA-MB-435) was 26.2 µM. The TGI (MDA-MB-435) was 91.7 µM, the GI50 (EKVX NSCLC) was 33.7 µM and the TGI (EKVX NSCLC) was 79.3 µM. For the same molecule, the GI50 (HL-60(TB) leukemia) was 73.2 µM, the TGI (HL-60(TB) leukemia) was greater than 100 µM and the GI50 (SK-MEL-28 melanoma) was 44.8 µM. For the same molecule, the TGI (SK-MEL-28 melanoma) was greater than 100 µM, the GI50 (RXF 393 renal) was 30.7 µM and the TGI (RXF 393 renal) was 59 µM. The GI50 (SF-539 CNS) was 21.3 µM, the TGI (SF-539 CNS) was 44.5 µM and the GI50 (OVCAR-4 ovarian) was 42.2 µM. The TGI (OVCAR-4 ovarian) was greater than 100 µM.
